Results: patent publication US20240116971A1, “NMN AND DERIVATIVES FOR ITS USE IN THE TREATMENT OF DEPRESSION AND/OR ANXIETY IN PATIENTS HAVING A FORM OF PARKINSONISM” (Nuvamid SA, priority 2021, published 2024)

Experiments:
Format in all cases: in vivo, human
[1] = Blood level of NMN and NAD
Text: The secondary objectives describe the characteristics of the patients who participated in the research, and aim at studying the pharmacokinetics of NMN in daily oral use and its impact on increasing NAD+ levels, and, in a preliminary way, at evaluating the potential benefits of NMN supplementation on the symptomatology related to multi-systemic atrophy syndrome MSA such as activities of daily living, motor disorders, orthostatic hypotension and autonomy using the validated […] scale. [table] Also, an aliquot of serum is stored at the laboratory at -80° C. for the determination of the patient's physiological NAD+ (Baseline) level by the promoter. The results are sent to the investigating responsible for checking these parameters (regarding the laboratory's standards) and validating or not the patient's eligibility. […] Also, an aliquot of acidified whole blood is stored at the AML at -80° C. for the determination of NMN metabolites. The hemodynamic constants (BP and HR standing up/lying down) are taken and entered in the patient's follow-up notebook by the nurse. The nurse also questions the patient on the possible occurrence of adverse events and checks the patient's compliance with treatment by filling in his or her follow-up notebook and pill box. On receipt, the investigating physician check the results: the blood parameters must be within the reference value limits and/or judged by the investigating physician as not clinically relevant. Otherwise, the patient is summoned without delay by the investigating physician to leave the study prematurely.

MSA patients [2] = assay: Quality of life, MSA-QoL self-questionnaire; details: for MSA-QoL non-motor subscore, average difference compared to V1: V1 30.4±10.0 points; for MSA-QoL Motor subscore, average difference compared to V1: V1 40.1±19.0 points
Text: [table] At this visit, the investigator checks the patient's completed follow-up notebook (compliance, adverse event (AE), treatments) and carries out an interrogation and clinical examination, including the taking of standing and lying hemodynamic constants (SAP/DAP and HR) in order to check the tolerance and the possible occurrence of an adverse event. Compliance is also monitored. The patient is asked to complete a quality of life questionnaire (MSA-QoL). Quality of life—MSA—QoL: the MSA-QoL scale is organized into 4 subsections: • Motor sub-score: items 1 to 14; • Non-motor sub-score: items 15 to 26; • Emotional/social sub-score: items 27 to 40. • Overall satisfaction of quality of life of 100 mm to describe the patient's overall satisfaction with their life.

MSA patients [3] = assay: Efficacy on the UMSARS scale; details: for UMSARS activities of daily living sub-score, change: score 0 to 48, lower is better, p-value >0.05
Method: For each eligible patient: during the first visit, the investigator carries out a specific complementary clinical examination MSA (validated specific scale: UMSARS) in order to score the basal level of the patient at inclusion on 4 axes: activities of daily living (12 items), motor level (14 items), orthostatic hypotension [4 measures: BP standing/sleeping (2 min); CF standing/sleeping (2 min) and orthostatic symptoms [Y/N] and finally, decide on their level of disability (1 item). During this visit, they are given pillbox No 1. They are told to start the product under study the next morning, on D1. In fact, the first intake of the dietary supplement can be taken the next morning with breakfast (2 capsules). Pill box No 1 must be returned at visit V2 (D15) to check compliance. A first daily follow-up notebook (follow-up notebook no 1) is given to the patient to record the intake of the food supplement, the concomitant treatments (if applicable) and any undesirable events that may have occurred. Follow-up notebook no 1 should be returned to the investigator at the V2 follow-up visit. The nurse goes to the patient's home 2 days before each follow-up visit in order to carry out the blood test (safety biology), take the hemodynamic constants standing/lying down (after a 2 minute rest): SAP/DAP and HR which is filled in the patient's follow-up notebook. The nurse checks the patient's compliance with the pillbox and the follow-up booklet. The nurse also reminds the patient not to forget to bring back the pill dispenser and the follow-up booklet at each visit. The investigator also takes the hemodynamic constants of the patient standing and lying down (after 2 minutes rest): SAP/DAP and HR. During this consultation, the patient/carer is also asked to answer a specific quality of life questionnaire (MSA-QoL questionnaire). If the patient meets all the eligibility criteria (apart from biology), the neurologist gives them a medical prescription to carry out a biological assessment. This biological assessment must be carried out within 3 days depending on the patient's availability. To do this, a nurse visits the patient at his/her home to collect the biological samples and to send it to the Medical Analysis Laboratories, the local reference laboratory for this research.
During the third visit at D45 and fourth visit at D90, the investigator also carries out a specific complementary clinical examination MSA (validated specific scale: UMSARS) in order to score the patient's level after 3 months of NMN supplementation on 4 axes: activities of daily living (12 items), motor level (14 items), orthostatic hypotension [4 measures: BP standing/sleeping (2 min); HR standing/sleeping (2 min) and orthostatic symptoms Y/N] and finally decide on their level of disability (1 item).

[4] = 3-month supplementation with NMN (400 mg/day) per os, MSA patients, mITT and PP
[5] = at 3 months, mITT and PP populations
[6] = mITT population, V3, p-value >0.05
[7] = mITT population, V4, p-value >0.05

With NC(=O)c1ccc[n+]([C@@H]2O[C@H](COP(=O)([O-])O)[C@@H](O)[C@H]2O)c1 [beta-NMN, nicotinamide mononucleotide] the “blood levels of NAD” value [1, 4] was “gradually increases”, the “blood levels of NMN” value [1, 4] was “gradually increases” and the “blood NAD level, mean value” ([1]; mITT population, V4 (n=8 subjects), NMN 400 mg/day per os, V1 16183.57±4205.09 (n=4 subjects)) was 29194.12 ± 9706.95 ng/mL. The “Overall satisfaction with quality of life, scaling” value (MSA patients [2]; PP population, V3 and V4 compared to V1) was “slight increase”, the “MSA-QoL Emotional/Social sub-score” value (MSA patients [2]; [5]) was “improvement” and the “MSA-QoL Motor subscore” value (MSA patients [2]; [5]) was “improvement”. For the same molecule, the MSA-QoL non-motor subscore (MSA patients [2]; [5]) was “improvement”, the “Overall satisfaction with quality of life, scaling” value (MSA patients [2]; mITT population, V2, V3 and V4 compared to V1, p-value >0.05) was “very slight decrease” and the “MSA-QoL non-motor subscore, average difference compared to V1” value (MSA patients [2]; mITT population, V2, 0 to 48, higher is worse, p-value >0.05) was −2.0 points. For the same molecule, the “MSA-QoL Motor subscore, average difference compared to V1” value (MSA patients [2]; mITT population, V2, 0 to 56, higher is worse, p-value >0.05) was −1.3 points, the “MSA-QoL non-motor subscore, average difference compared to V1” value (MSA patients [2]; [6]) was −5.2 points and the “MSA-QoL Motor subscore, average difference compared to V1” value (MSA patients [2]; [6]) was −5.6 points. For the same molecule, the “MSA-QoL non-motor subscore, average difference compared to V1” value (MSA patients [2]; [7]) was −4.1 points, the “MSA-QoL Motor subscore, average difference compared to V1” value (MSA patients [2]; [7]) was −5.1 points and the “UMSARS Motor Examination Scale: improved items” value (MSA patients [3]; NMN 400 mg/day, 3 months) was “facial expression and tremor at rest”. The “UMSARS activities of daily living: improved items” value (MSA patients [3]; NMN 400 mg/day, 3 months) was “speech, writing, eating and handling cutlery, dressing, risk of falling and orthostatic symptoms”, the “UMSARS disability scale score” value (MSA patients [3]; PP population, 3.5±1.0 points at VO, scale 1 to 5) was “maintained at V3 and V4” and the “Orthostatic hypotension (OH)” value (MSA patients [3]; V3 and V4, OH had been detected in these patients at previous visits, other patients unchanged) was “two patients showed no signs of OH at V3 and V4”. The “functional situation of the patients” value (MSA patients [3]; at 1.5 months and 3 months, mITT and PP populations) was “slight improvement”, the “UMSARS motor examination, overall” value (MSA patients [3]; at 3 months, mITT and PP) was “did not show any improvement in the motor examination but did not show any deterioration” and the “UMSARS activities of daily living sub-score, change” value (MSA patients [3]; mITT population, V3 vs VO (16.3±6.8 points)) was −0.3 point. For the same molecule, the “UMSARS Motor Examination Scale sub-score, change” value (MSA patients [3]; mITT population, V3 vs VO (18.5±11.3 points), score 0 to 56, lower is better) was −0.6 points, the “UMSARS Motor Examination Scale sub-score” value (MSA patients [3]; mITT population, V4, VO 18.5±11.3 points) was “rises again at V4 to reach the score observed at VO” and the “UMSARS activities of daily living sub-score, change” value (MSA patients [3]; mITT population, V4 vs VO (16.3±6.8 points)) was −1.0 point. For the same molecule, the “UMSARS disability scale score” value (MSA patients [3]; mITT population, 2.9±1.4 points at VO, scale 1 to 5, lower is more independent) was “perfectly maintained at V3 and V4”.
